Data taken from patent US20150191469A1, “COMPOUNDS AND METHODS FOR TREATING HIV” (priority 2012, published 2015).
Counter-ions that a name gives are not always drawn.

system: HIV; assay: MT4 assay: antiviral HIV activity (cell protection, cell titer glo readout at 96 hours); assay type: cell-based; conditions: Human immunodeficiency virus 1, MT4, 96 h, MT4 cells, cell titer glo readout at 96 hours, 10 point dose response; read-out: HIV MT4 Assay IC50
Procedure, shortened: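 MT-4 cells infected with HIV, with inhibition readout by CellTiter-Glo luminescence at 96 h relative to no-compound control. Cytotoxicity measured in parallel under the same conditions. IC50 from a 10-point, 3-4-fold dilution series spanning >1000-fold, fitted with a four-parameter logistic equation.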

Row | IC50 [nM] | SMILES
1 | 291 | Cc1nc2c(cc(-c3cnn(CC4CN(C5CCOCC5)C4)c3)n2C)c(-c2cc(F)c3c(c2C)CCCO3)c1[C@H](OC(C)(C)C)C(=O)O (atropisomer, axis not shown) [Example 130]
2 | 89.5 | Cc1nc2c(cc(-c3ccc(F)cc3)n2C)c(-c2cc(F)c3c(c2C)CCCO3)c1[C@H](OC(C)(C)C)C(=O)O (atropisomer, axis not shown) [Example 131]
3 | 32.9 | CCCn1cc(-c2cc3c(-c4cc(F)c5c(c4C)CCCO5)c([C@H](OC(C)(C)C)C(=O)O)c(C)nc3n2C)cn1 (atropisomer, axis not shown) [Example 132]
4 | 104 | Cc1nc2c(cc(-c3cnn(C4CCN(C5COC5)CC4)c3)n2C)c(-c2cc(F)c3c(c2C)CCCO3)c1[C@H](OC(C)(C)C)C(=O)O (atropisomer, axis not shown) [Example 133]
5 | 39.2 | Cc1nc2c(cc(-c3ccc4c(cnn4C)c3)n2C)c(-c2cc(F)c3c(c2C)CCCO3)c1[C@H](OC(C)(C)C)C(=O)O (atropisomer, axis not shown) [Example 134]
6 | 126 | Cc1nc2c(cc(-c3ccc4c(c3)N(C)CCO4)n2C)c(-c2cc(F)c3c(c2C)CCCO3)c1[C@H](OC(C)(C)C)C(=O)O (atropisomer, axis not shown) [Example 135]
7 | 42.5 | Cc1nc2c(cc(-c3ccc4nccn4c3)n2C)c(-c2cc(F)c3c(c2C)CCCO3)c1[C@H](OC(C)(C)C)C(=O)O (atropisomer, axis not shown) [Example 136]
8 | 43.8 | Cc1nc2c(cc(-c3ccc4c(c3)CCN(C)C4=O)n2C)c(-c2cc(F)c3c(c2C)CCCO3)c1[C@H](OC(C)(C)C)C(=O)O (atropisomer, axis not shown) [Example 137]
9 | 487 | Cc1nc2c(cc(-c3ccnc(C(=O)N4CCN(S(C)(=O)=O)CC4)c3)n2C)c(-c2cc(F)c3c(c2C)CCCO3)c1[C@H](OC(C)(C)C)C(=O)O (atropisomer, axis not shown) [Example 146]
10 | 45.3 | Cc1nc2c(cc(-c3ccnc(C(=O)Nc4cnn(C)c4)c3)n2C)c(-c2cc(F)c3c(c2C)CCCO3)c1[C@H](OC(C)(C)C)C(=O)O (atropisomer, axis not shown) [Example 147]
11 | 40.1 | Cc1nc2c(cc(-c3ccnc(C(=O)Nc4ccnn4C)c3)n2C)c(-c2cc(F)c3c(c2C)CCCO3)c1[C@H](OC(C)(C)C)C(=O)O (atropisomer, axis not shown) [Example 148]
12 | 219 | Cc1nc2c(cc(-c3ccnc(C(=O)NCCN4CCCC4=O)c3)n2C)c(-c2cc(F)c3c(c2C)CCCO3)c1[C@H](OC(C)(C)C)C(=O)O (atropisomer, axis not shown) [Example 149]
13 | 9360 | Cc1nc2c(cc(-c3ccnc(C(=O)NCc4c[nH]cn4)c3)n2C)c(-c2cc(F)c3c(c2C)CCCO3)c1[C@H](OC(C)(C)C)C(=O)O (atropisomer, axis not shown) [Example 150]
14 | 43.6 | Cc1nc2c(cc(-c3ccnc(C(=O)NCc4ccc(F)cc4)c3)n2C)c(-c2cc(F)c3c(c2C)CCCO3)c1[C@H](OC(C)(C)C)C(=O)O (atropisomer, axis not shown) [Example 151]
15 | 72.4 | Cc1nc2c(cc(-c3ccnc(C(=O)NC4CCCCC4)c3)n2C)c(-c2cc(F)c3c(c2C)CCCO3)c1[C@H](OC(C)(C)C)C(=O)O (atropisomer, axis not shown) [Example 152]
16 | 44 | Cc1nc2c(cc(-c3ccnc(C(=O)Nc4ccn(C)n4)c3)n2C)c(-c2cc(F)c3c(c2C)CCCO3)c1[C@H](OC(C)(C)C)C(=O)O (atropisomer, axis not shown) [Example 153]
17 | 81.9 | Cc1nc2c(cc(-c3ccnc(C#CC(C)(C)N)c3)n2C)c(-c2cc(F)c3c(c2C)CCCO3)c1[C@H](OC(C)(C)C)C(=O)O (atropisomer, axis not shown) [Example 155]
18 | 39.8 | Cc1nc2c(cc(-c3ccnc(C#CC4(N)CCCCC4)c3)n2C)c(-c2cc(F)c3c(c2C)CCCO3)c1[C@H](OC(C)(C)C)C(=O)O (atropisomer, axis not shown) [Example 156]
19 | 30 | Cc1nc2c(cc(-c3ccnc(C#CCN4CCCC4)c3)n2C)c(-c2cc(F)c3c(c2C)CCCO3)c1[C@H](OC(C)(C)C)C(=O)O (atropisomer, axis not shown) [Example 157]
20 | 45 | Cc1nc2c(cc(-c3ccnc(C#CCN4CCOCC4)c3)n2C)c(-c2cc(F)c3c(c2C)CCCO3)c1[C@H](OC(C)(C)C)C(=O)O (atropisomer, axis not shown) [Example 158]
21 | 27.9 | Cc1nc2c(cc(-c3ccnc(C#CC4(O)CCCCC4)c3)n2C)c(-c2cc(F)c3c(c2C)CCCO3)c1[C@H](OC(C)(C)C)C(=O)O (atropisomer, axis not shown) [Example 159]
22 | 150 | Cc1nc2c(cc(-c3ccnc(C#CCN4CCN(C)CC4)c3)n2C)c(-c2cc(F)c3c(c2C)CCCO3)c1[C@H](OC(C)(C)C)C(=O)O (atropisomer, axis not shown) [Example 160]

Row | SMILES | IC50 [nM]
23 | Cc1nc2c(cc(-c3ccnc(-c4ccc5c(cnn5C)c4)c3)n2C)c(-c2ccc3c(c2C)CCCO3)c1[C@H](OC(C)(C)C)C(=O)O (atropisomer, axis not shown; (M)) [Example 1, (2S)(M)-2-(tert-butoxy)-2-(1,6-dimethyl-2-(2-(1-methyl-1H-indazol-5-yl)pyridin-4-yl)-4-(5-methylchroman-6-yl)-1H-pyrrolo[2,3-b]pyridin-5-yl)acetic acid] | 1.7
24 | Cc1nc2c(cc(-c3nc(N4CCN(C5CCOCC5)CC4)no3)n2C)c(-c2cc(F)c3c(c2C)CCCO3)c1[C@H](OC(C)(C)C)C(=O)O (atropisomer, axis not shown; (M)) [Example 27, (2S)(M)-2-(tert-butoxy)-2-(4-(8-fluoro-5-methylchroman-6-yl)-1,6-dimethyl-2-(3-(4-(tetrahydro-2H-pyran-4-yl)piperazin-1-yl)-1,2,4-oxadiazol-5-yl)-1H-pyrrolo[2,3-b]pyridin-5-yl)acetic acid] | 4.6
25 | Cc1nc2c(cc(-c3nnc(-c4ccc5c(cnn5C)c4)o3)n2C)c(-c2cc(F)c3c(c2C)CCCO3)c1[C@H](OC(C)(C)C)C(=O)O (atropisomer, axis not shown; (M)) [Example 28, (2S)(M)-2-(tert-butoxy)-2-(4-(8-fluoro-5-methylchroman-6-yl)-1,6-dimethyl-2-(5-(1-methyl-1H-indazol-5-yl)-1,3,4-oxadiazol-2-yl)-1H-pyrrolo[2,3-b]pyridin-5-yl)acetic acid] | 1.8
26 | Cc1nc2c(cc3n2CCCC3)c(-c2cc(F)c3c(c2C)CCCO3)c1[C@H](OC(C)(C)C)C(=O)O (atropisomer, axis not shown; (M)) [Example 29, (2S)(M)-2-(tert-butoxy)-2-(4-(8-fluoro-5-methylchroman-6-yl)-2-methyl-6,7,8,9-tetrahydropyrido[3,2-b]indolizin-3-yl)acetic acid] | 13.8
27 | Cc1nc2c(cc(-c3ccn(C4CN(C)C4)n3)n2C)c(-c2cc(F)c3c(c2C)CCCO3)c1[C@H](OC(C)(C)C)C(=O)O (atropisomer, axis not shown; (M)) [Example 129, (2S)(M)-2-(tert-butoxy)-2-(-4-(8-fluoro-5-methylchroman-6-yl)-1,6-dimethyl-2-(1-(1-methylazetidin-3-yl)-1H-pyrazol-3-yl)-1H-pyrrolo[2,3-b]pyridin-5-yl)acetic acid] | 45.2
28 | Cc1nc2c(cc(-c3ccnc(C(=O)N4CCN(c5ccccc5)CC4)c3)n2C)c(-c2cc(F)c3c(c2C)CCCO3)c1[C@H](OC(C)(C)C)C(=O)O (atropisomer, axis not shown; (M)) [Example 145] | 45.3
29 | Cc1nc2c(cc(-c3ccnc(C#Cc4cncn4C)c3)n2C)c(-c2cc(F)c3c(c2C)CCCO3)c1[C@H](OC(C)(C)C)C(=O)O (atropisomer, axis not shown; (M)) [Example 154, (2S)(M)-2-(tert-butoxy)-2-(-4-(8-fluoro-5-methylchroman-6-yl)-1,6-dimethyl-2-(2-((1-methyl-1H-imidazol-5-yl)ethynyl)pyridin-4-yl)-1H-pyrrolo[2,3-b]pyridin-5-yl)acetic acid] | 11
30 | Cc1nc2c(cc(C(=S)N3CCC(c4ccccc4)CC3)n2C)c(-c2cc(F)c3c(c2C)CCCO3)c1[C@H](OC(C)(C)C)C(=O)O (atropisomer, axis not shown; (M)) [Example 281, (2S)(M)-2-(tert-butoxy)-2-(-4-(8-fluoro-5-methylchroman-6-yl)-1,6-dimethyl-2-(4-phenylpiperidine-1-carbonothioyl)-1H-pyrrolo[2,3-b]pyridin-5-yl)acetic acid] | 38.3
31 | Cc1nc2c(cc(CCc3ccccc3)n2C)c(-c2cc(F)c3c(c2C)CCCO3)c1[C@H](OC(C)(C)C)C(=O)O (atropisomer, axis not shown; (M)) [Example 282, (2S)(M)-2-(tert-butoxy)-2-(-4-(8-fluoro-5-methylchroman-6-yl)-1,6-dimethyl-2-phenethyl-1H-pyrrolo[2,3-b]pyridin-5-yl)acetic acid] | 56.8

same assay, conditions: Human immunodeficiency virus 1, MT4, 96 h, read-out: HIV MT4 Assay IC50

Row | SMILES | IC50 [nM]
32 | Cc1nc2c(cc(C(=O)N3CCN(C4CCCC4)CC3)n2C)c(-c2cc(F)c3c(c2C)CCCO3)c1[C@H](OC(C)(C)C)C(=O)O (atropisomer, axis not shown; (M)) [Example 161, (2S)(M)-2-(tert-butoxy)-2-(2-(4-cyclopentylpiperazine-1-carbonyl)-4-(8-fluoro-5-methylchroman-6-yl)-1,6-dimethyl-1H-pyrrolo[2,3-b]pyridin-5-yl)acetic acid ditrifluoroacetic acid salt] | 37.9

same assay, conditions: MT4 cells, cell titer glo readout at 96 hours, 10 point dose response; read-out: HIV MT4 Assay IC50

Row | SMILES | IC50 [nM]
33 | Cc1nc2c(cc(-c3nc(N4CCN(C5CCOCC5)CC4)ns3)n2C)c(-c2cc(F)c3c(c2C)CCCO3)c1[C@H](OC(C)(C)C)C(=O)O (atropisomer, axis not shown; (M)) [Example 26, (2S)(M)-2-(tert-butoxy)-2-(4-(8-fluoro-5-methylchroman-6-yl)-1,6-dimethyl-2-(3-(4-(tetrahydro-2H-pyran-4-yl)piperazin-1-yl)-1,2,4-thiadiazol-5-yl)-1H-pyrrolo[2,3-b]pyridin-5-yl)acetic acid] | 2.9
